The values below come from patent publication US8604053B2, “TRPV1 antagonists” (AbbVie Inc., priority 2008, dated 2013).

As usually defined, the IC50 is the concentration at which inhibition is half-maximal. Lower therefore signals greater potency in that assay.

Molecules are shown by their SMILES.

Data set [1] addresses T1, human TRPV1 receptor (hTRPV1) (Homo sapiens, UniProt Q8NER1).
T1 construct: expressed in transfected cells
The data set is described as follows: Capsaicin activation assay (Ca2+ influx, FLIPR). It is filed as cell-based. To be noted: hTRPV1 in 1321N1 cells, 0.05 μM capsaicin. Here is the method:
Dulbecco's modified Eagle medium (D-MEM) (with 4.5 mg/mL glucose) and fetal bovine serum were obtained from Hyclone Laboratories, Inc. (Logan, Utah). Dulbecco's phosphate-buffered saline (D-PBS) (with 1 mg/mL glucose and 3.6 mg/l Na pyruvate, without phenol red), L-glutamine, hygromycin B, and Lipofectamine® were obtained from Life Technologies (Grand Island, N.Y.). G418 sulfate was obtained from Calbiochem-Novabiochem Corp. (San Diego, Calif.). Capsaicin (8-methyl-N-vanillyl-6-nonenamide) was obtained from Sigma-Aldrich, Co. (St. Louis, Mo.). Fluo-4 AM (N-[4-[6-[(acetyloxy)methoxy]-2,7-difluoro-3-oxo-3H-xanthen-9-yl]-2-[2-[2-[bis[2-[(acetyloxy)methoxy]-2-oxyethyl]amino]-5-methyl-phenoxy[ethoxy]phenyl]-N-[2-[(acetyloxy)methoxy]-2-oxyethyl]-glycine, (acetyloxy)methyl ester) was purchased from Molecular Probes (Eugene, Oreg.).
The cDNAs for the human TRPV1 receptor (hTRPV1) were isolated by reverse transcriptase-polymerase chain reaction (RT-PCR) from human small intestine poly A+ RNA supplied by Clontech (Palo Alto, Calif.) using primers designed surrounding the initiation and termination codons identical to the published sequences (Hayes et al. Pain 2000, 88, 205-215). The resulting cDNA PCR products were subcloned into pClneo mammalian expression vector (Promega) and fully sequenced using fluorescent dye-terminator reagents (Prism, Perkin-Elmer Applied Biosystems Division) and a Perkin-Elmer Applied Biosystems Model 373 DNA sequencer or Model 310 genetic analyzer. Expression plasmids encoding the hTRPV1 cDNA were transfected individually into 1321N1 human astrocytoma cells using Lipofectamine®. Forty-eight hours after transfection, the neomycin-resistant cells were selected with growth medium containing 800 μg/mL Geneticin (Gibco BRL). Surviving individual colonies were isolated and screened for TRPV1 receptor activity. Cells expressing recombinant homomeric TRPV1 receptors were maintained at 37° C. in D-MEM containing 4 mM L-glutamine, 300 μg/mL G418 (Cal-biochem) and 10% fetal bovine serum under a humidified 5% CO2 atmosphere.
The functional activity of compounds at the TRPV1 receptor was determined with a Ca^2+ influx assay and measurement of intracellular Ca^2+ levels ([Ca^2+]i). All compounds were tested over an 11-point half-log concentration range. Compound solutions were prepared in D-PBS (4× final concentration), and diluted serially across 96-well v-bottom tissue culture plates using a Biomek 2000 robotic automation workstation (Beckman-Coulter, Inc., Fullerton, Calif.). A 0.2 μM solution of the TRPV1 agonist capsaicin was also prepared in D-PBS. The fluorescent Ca^2+ chelating dye Fluo-4 AM was used as an indicator of the relative levels of [Ca^2+]i in a 96-well format using a Fluorescence Imaging Plate Reader (FLIPR)(Molecular Devices, Sunnyvale, Calif.). Cells were grown to confluency in 96-well black-walled tissue culture plates. Then, prior to the assay, the cells were loaded with 100 μL per well of Fluo-4 AM (2 μM, in D-PBS) for 1-2 hours at 23° C. Washing of the cells was performed to remove extracellular Fluo-4 AM (2×1 mL D-PBS per well), and afterward, the cells were placed in the reading chamber of the FLIPR instrument. 50 μL of the compound solutions were added to the cells at the 10 second time mark of the experimental run. Then, after a 3-minute time delay, 50 μL of the capsaicin solution was added at the, 190 second time mark (0.05 μM final concentration)(final volume=200 μL) to challenge the TRPV1 receptor. Time length of the experimental run was 240 seconds. Fluorescence readings were made at 1 to 5 second intervals over the course of the experimental run. The peak increase in relative fluorescence units (minus baseline) was calculated from the 190 second time mark to the end of the experimental run, and expressed as a percentage of the 0.05 μM capsaicin (control) response. […]

Data set [2] can be described thus: Rat telemetry protocol, core body temperature. In kind it is in vivo. The conditions noted are these: core body temperature of rats one hour post dosing, 100 μmol/kg p.o., relative to vehicle. Here is the method:
Male, Sprague Dawley rats, 225-250 grams were anesthetized with Sevoflurane (Abbott Laboratories). Rats were placed on a heating pad and covered with a sterile surgical drape. A ventral midline abdominal incision was made and sterile cotton tip applicators were used to gently move internal tissue and expose the abdominal aorta for implantation of the telemetry catheter (Data Sciences International; TL11M2-050-PXT). Blood flow was temporarily stopped to the lower extremities (5-7 min) with Diffenbach clamps to allow the insertion of the telemetry catheter into the abdominal aorta. Once inserted, a sterile cellulose patch was placed over the catheter/aorta and secured using a small amount of tissue adhesive (Vetbond, 3M). Once catheter placement was complete, the clamps were removed and blood flow was restored to the lower extremities. Thetransmitter was placed in the intraperitoneal cavity. The transmitter suture rib was sewn into the abdominal sutures to secure it in place. The skin was closed using sterile wound clips and the animal removed from Sevoflurane. Buprenex ([…] s.c.; Phoenix) was administered for post-operative analgesia. Animals were maintained on a heating pad until ambulatory, and then individually housed with food and water ad lib. Surgical staples were removed after 7-10 days post-implantation. Rats were allowed a 2-week post-surgical recovery period before treatment with test compound. Oral dosing (p.o.) was at time zero, with rats receiving a single dose of vehicle (10% EtOH, 20% Tween-80, 70% PEG-400) or a 100 μmol/kg dose of compound dissolved in vehicle. Temperature measurements were recorded every 15 minutes for the duration of the study (24 hours).
Representative compounds described herein have the novel property of having limited transient temperature effect on core body temperature of a mammal (e.g. rats). For example, compounds tested alter core body temperature of rats by less than about +0.5° C. at about 1 hour after administration of a single dose (100 μmol/kg) of the test compounds orally, for example, in the range from about −2.5° C. to less than about +0.5° C., from about −0.5° C. to less than about +0.5° C.; or from about −0.3° C. to about +0.3° C.
The term “core body temperature” as used herein, means the temperature measured in the intraperitoneal cavity.

The next data set has as its target T2, CYP2C9 (Homo sapiens, UniProt P11712).
T2 construct: human liver microsomes (BD Gentest); tissue BD Gentest; host or cells: human liver microsomes
The experiment in a line: CYP2C9 inhibition assay. It is filed as in vitro ADME. To be noted: pH 7.4, probe Luciferin-H (100 μM final), human liver microsomes, substrate Luciferin-H, read-out: CYP2C9 % inh @ 2.2 μM. Here is the method:
Stock solutions of test compounds were assayed in 96-well format for their ability to inhibit CYP2C9, CYP2D6, or CYP3A4 mediated metabolism of test substrates. Luciferin-H was used as the substrate for CYP2C9; 3-[2-(N,N-diethyl-N-methylammonium)ethyl]-7-methoxy-4-methylcoumarin (AMMC) was used as the substrate for CYP2D6; 7-benzyloxyquiniline (BZQ) was used as the substrate for CYP3A4. For each subtype, positive controls (sulphaphenazole in the case of CYP2C9; quinidine in the case of CYP2D6, ketoconazole in the case of CYP3A4) were used to validate assay results run in duplicate.
Pre-Incubation Mixture Preparation for CYP2C9 and CYP2D6: A pre-incubation mixture was prepared by combining 100 mM phosphate buffer (9.12 mL; pH 7.4), human liver microsomes (BD Gentest, 240 itt; final concentration: 0.4 mg/mL), and 10 mM nicotinamide adenine dinucleotide phosphate in 65.4 mM MgCl2 hexahydrate (120 μL; final concentration: 125 μM and 818 μM, respectively). To this was mixture is added a ‘regeneration’ mixture (120 μL) of 333 mM glucose-6-phosphate and 40 U/mL glucose-6-phosphate dehydrogenase in 5 mM sodium citrate (final concentration: 4 mM, 0.5 U/mL, and 0.06 mM, respectively).
Substrate Mixture Preparation for CYP2C9: To a solution of 25 mM phosphate buffer, (2.16 mL, pH 7.4) was added 5 mM Luciferin-H (Promega P450 Glo Assay V8792, 240 μL; final solution concentration 0.5 mM, final assay concentration 100 μM).
CYP2C9 Inhibiton Assay: To each well in the assay plate containing varying concentrations of test compound or control compound in DMSO (10 μL) Pre-Incubation Mixture (40 itt) was added to the wells and the assay plate was pre-incubated for 10 minutes at 37° C., with shaking or rocking. CYP2C9 Substrate Mixture (10 μL) was added to all wells and the assay plate was incubated for an additional 25 minutes at 37° C., with shaking or rocking. Final DMSO concentration was 1%. Luciferin-H detection reagent (Promega kit V8792, 50 μL) was added to all wells. The plate was then vortexed at ambient temperature for between 20 minutes and 2 hours, and the luminescence of each well was then read and recorded.

T1 sequence (Q8NER1 whole entry): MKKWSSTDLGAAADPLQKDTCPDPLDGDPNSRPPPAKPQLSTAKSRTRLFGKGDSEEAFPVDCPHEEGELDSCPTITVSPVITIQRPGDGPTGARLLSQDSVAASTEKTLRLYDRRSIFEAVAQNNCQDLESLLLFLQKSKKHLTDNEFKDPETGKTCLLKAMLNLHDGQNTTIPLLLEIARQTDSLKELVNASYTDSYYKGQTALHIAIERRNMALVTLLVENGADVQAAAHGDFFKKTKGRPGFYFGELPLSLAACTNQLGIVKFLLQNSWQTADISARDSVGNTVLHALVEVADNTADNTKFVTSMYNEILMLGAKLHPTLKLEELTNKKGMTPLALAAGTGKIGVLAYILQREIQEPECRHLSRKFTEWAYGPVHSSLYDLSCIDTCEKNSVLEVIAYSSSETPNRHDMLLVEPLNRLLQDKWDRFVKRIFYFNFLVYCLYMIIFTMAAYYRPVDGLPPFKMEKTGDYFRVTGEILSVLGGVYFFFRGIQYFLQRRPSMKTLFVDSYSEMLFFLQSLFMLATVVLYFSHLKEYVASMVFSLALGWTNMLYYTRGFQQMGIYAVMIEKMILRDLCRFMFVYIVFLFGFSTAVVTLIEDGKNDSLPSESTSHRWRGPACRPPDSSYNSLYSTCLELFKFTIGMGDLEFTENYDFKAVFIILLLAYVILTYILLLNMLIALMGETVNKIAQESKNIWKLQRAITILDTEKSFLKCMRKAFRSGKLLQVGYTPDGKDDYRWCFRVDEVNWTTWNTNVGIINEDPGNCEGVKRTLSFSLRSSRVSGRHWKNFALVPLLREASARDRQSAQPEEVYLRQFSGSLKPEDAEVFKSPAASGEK
T2 sequence (P11712 whole entry): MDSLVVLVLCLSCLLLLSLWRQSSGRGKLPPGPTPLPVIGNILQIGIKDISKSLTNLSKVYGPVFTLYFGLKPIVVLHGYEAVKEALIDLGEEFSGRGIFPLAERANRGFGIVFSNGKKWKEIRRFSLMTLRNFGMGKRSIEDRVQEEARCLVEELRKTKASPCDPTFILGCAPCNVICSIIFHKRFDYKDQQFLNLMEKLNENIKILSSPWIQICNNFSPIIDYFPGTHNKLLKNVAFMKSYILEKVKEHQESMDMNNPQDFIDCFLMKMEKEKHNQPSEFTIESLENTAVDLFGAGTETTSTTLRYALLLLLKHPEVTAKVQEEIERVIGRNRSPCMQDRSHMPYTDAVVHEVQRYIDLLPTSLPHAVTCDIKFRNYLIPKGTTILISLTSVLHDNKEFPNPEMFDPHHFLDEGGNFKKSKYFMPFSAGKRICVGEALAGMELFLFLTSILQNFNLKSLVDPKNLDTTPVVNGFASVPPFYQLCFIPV

In turn, `O=C(Nc1cccc2c1C[C@H](O)CC2)N[C@@H]1CC2(CCC2)Oc2ccc(F)cc21` [Example 6, N-[(4R)-6-fluoro-3,3′,4,4′-tetrahydro-2′H-spiro[chromene-2,1′-cyclobutan]-4-yl]-N′-[(7R)-7-hydroxy-5,6,7,8-tetrahydronaphthalen-1-yl]urea] returned an IC50 in data set [1] of 28 nM. In addition, the “Δ Temp (° C.)” value in data set [2] is 0.2 °C.

For `CCCC1(CCC)C[C@@H](NC(=O)Nc2cccc3c2cnn3C)c2cccc(F)c2O1` [Example 67, N-[(4R)-8-fluoro-2,2-dipropyl-3,4-dihydro-2H-chromen-4-yl]-N′-(1-methyl-1H-indazol-4-yl)urea], the IC50 in data set [1] amounted to 18 nM. Also, in data set [2], the “Δ Temp (° C.)” value is −0.2 °C.

With `CC1(C)C[C@@H](NC(=O)Nc2cccc3[nH]ncc23)c2ccc(C(F)(F)F)cc2O1` [Example 41, N-[(4R)-2,2-dimethyl-7-(trifluoromethyl)-3,4-dihydro-2H-chromen-4-yl]-N′-1H-indazol-4-ylurea], the half-maximal inhibitory concentration (IC50) in data set [1] worked out at 16 nM. The “Δ Temp (° C.)” value in data set [2] was −2.5 °C.

Regarding `O=C(Nc1cccc2[nH]ncc12)N[C@@H]1CC2(CCC2)Oc2ccc(F)cc21` [Example 8, N-[(4R)-6-fluoro-3,3′,4,4′-tetrahydro-2′H-spiro[chromene-2,1′-cyclobutan]-4-yl]-N′-1H-indazol-4-ylurea], the IC50 in data set [1] is 76 nM. In addition, the “Δ Temp (° C.)” value in data set [2] came to 0.1 °C.

Regarding `CCC1(CC)C[C@@H](NC(=O)Nc2cccc3c2cnn3C)c2cccc(F)c2O1` [Example 50, N-[(4R)-2,2-diethyl-8-fluoro-3,4-dihydro-2H-chromen-4-yl]-N′-(1-methyl-1H-indazol-4-yl)urea], in data set [1], it took 35 nM to reach half-maximal inhibition (IC50). Further, the “Δ Temp (° C.)” value in data set [2] came out at 0.1 °C.

`CC1(C)C[C@@H](NC(=O)Nc2cccc3cnc(N)cc23)c2ccc(F)cc2O1` [Example 106, N-(3-aminoisoquinolin-5-yl)-N′-[(4R)-7-fluoro-2,2-dimethyl-3,4-dihydro-2H-chromen-4-yl]urea]: the inhibition at 25 min, 2.2 µM on CYP2C9 came to 13%. In data set [1], this compound came in with an IC50 of 21 nM. Moreover, the “Δ Temp (° C.)” value in data set [2] was 0.3 °C.

`Cn1ncc2c(NC(=O)N[C@@H]3CC4(CCC4)Oc4ccc(F)cc43)cccc21` [Example 7, N-[(4R)-6-fluoro-3,3′,4,4′-tetrahydro-2′H-spiro[chromene-2,1′-cyclobutan]-4-yl]-N′-(1-methyl-1H-indazol-4-yl)urea] displayed an IC50 in data set [1] of 78 nM. Moreover, the “Δ Temp (° C.)” value in data set [2] was determined as 0.1 °C.

In data set [1], `CCC1(CC)C[C@@H](NC(=O)Nc2cccc3c(C)nccc23)c2cc(F)ccc2O1` [Example 86, N-[(4R)-2,2-diethyl-6-fluoro-3,4-dihydro-2H-chromen-4-yl]-N′-(1-methylisoquinolin-5-yl)urea] displayed a half-inhibitory concentration (IC50) of 10 nM. The “Δ Temp (° C.)” value in data set [2] was −1.7 °C.

As for `Cn1ncc2c(NC(=O)N[C@@H]3CC(CF)(CF)Oc4c(OC(F)(F)F)cccc43)cccc21` [Example 88, N-[(4R)-2,2-bis(fluoromethyl)-8-(trifluoromethoxy)-3,4-dihydro-2H-chromen-4-yl]-N′-(1-methyl-1H-indazol-4-yl)urea], 9 nM corresponded to half-maximal inhibition in data set [1] (IC50). The “Δ Temp (° C.)” value in data set [2] was −0.3 °C.

In turn, `CCC1(CC)C[C@@H](NC(=O)Nc2cccc3[nH]ncc23)c2cc(F)ccc2O1` [Example 58, N-[(4R)-2,2-diethyl-6-fluoro-3,4-dihydro-2H-chromen-4-yl]-N′-1H-indazol-4-ylurea] returned an IC50 in data set [1] of 19 nM. Besides, the “Δ Temp (° C.)” value in data set [2] came out at 0.3 °C.

In turn, `O=C(Nc1cccc2[nH]ncc12)N[C@@H]1CCOc2c(OC(F)(F)F)cccc21` [Example 70, N-1H-indazol-4-yl-N′-[(4R)-8-(trifluoromethoxy)-3,4-dihydro-2H-chromen-4-yl]urea] yielded an IC50 in data set [1] of 5 nM. For the same compound, the “Δ Temp (° C.)” value in data set [2] was 0.3 °C.
